{"source": "patent US8859625B2", "about": "“Methods to prepare penta-1,4-dien-3-ones and substituted cyclohexanones and derivatives with antitumoral and antiparasitic properties, the compounds and their uses” (Universidade Bandeirante de Sao Paulo-Academia, Paulista …, priority 2006, dated 2014)", "key": {"[1]": {"test_system": "promastigotes of Leishmania (isolate D.C.L.)", "assay": "Promastigote viability by MTT, D.C.L. isolate, Warren medium", "assay_type": "cell-based", "settings": "for O.D. (optical density at 595/690 nm wavelength): Warren medium", "procedure": "(§1) Viability and/or cellular proliferative assays of promastigote and amastigote forms are also performed by the MTT (diphenyl tetrazolium 3-[4,5-dimethylthiazol-2il]2,5-bromide) method as described by Moreira, et al. (Moreira, M. E. C., Del Portillo, H. A., Milder, R. V., Balanco, J. M. F. and Barcinski, M. A. Heat shock induction of apoptosis in promastigotes of the unicellular organism Leishmania (Leishmania) amazonensis, J. Cell Physiol 167, 305-313, 1996), modified.\n(§2) After incubation of parasitic forms with the compounds, as described above, for predetermined periods of time for each experiment (24, 48, 72 hours, etc.), an 1.0 mL aliquot of cellular suspension is collected from each culture tube or vial and transferred to microcentrifuge tubes, where they are centrifuged at 14.000 rpm for 3 minutes, the culture medium is aspirated and discharged. To the sedimented cells are add 200 μL of PBS. After that, the volume in PBS of the cellular suspensions is splitted into two wells (duplicates of 100 μL each) of a 96 well culture plate. To each duplicate, […] of MTT (5 mg/mL stock solution, […]) are added. After 1 h or 1 h 30 min, at a temperature of 22° C. (promastigotes) or 34° C. (amastigotes), 100 μL of 10% SDS are added to each well to interrupt the reaction, to lyse the cells and to dissolve the formazan crystals, resulting in an homogeneous blue solution appropriate to the absorbance measure by a spectrophotometer for culture microplates (3550 BIORAD model, Richmond, Calif.), at 595 nm as test wavelength and 690 nm as the reference wavelength.\n(§3) The optical density (O.D.) values correspond to MTT enzymatic reduction by the metabolic active cells. Consequently, the O.D. is directly proportional to the number of viable cells of the cellular suspension. The progressive increase of O.D. indicates cellular proliferation. Results are expressed as arithmetic average of the optical density duplicates.\nThis experiment is developed in the Warren medium using an initial inoculum of 2.0×10^6/mL of the medium for the isolates. Cultures were at the day 7^h of passage and at the final exponential phase growth (day 6 of incubation). The results of viability determination for the Leishmania (isolate L.C.L.) promastigotes, incubated in Warren medium and in the presence of HB-1, are shown in the next Table and in FIG. 36. The culture final volume is of 5 mL and the MTT reactions are processed in 1 h and 30 minutes of incubation, beginning with 1.0 mL of culture.\nIn the next Table and in FIG. 37 are shown the results of viability determination for the promastigotes of Leishmania (isolate D.C.L.) incubated in Warren medium in the presence of HB-1."}, "[2]": {"test_system": "amastigote-like forms of Leishmania (L) amazonensis", "assay": "Viability of amastigote-like forms from axenic culture by MTT", "assay_type": "cell-based", "settings": "for O.D. (optical density): amastigote-like forms", "procedure": "Compounds are solubilized with dimethyl sulfoxide (DMSO) to produce a stock solution from which samples with different concentrations are obtained, by adding the culture medium in sufficient volume as required to attain the first desired concentration with the other concentrations being obtained by serial dilution of this first one, at ratio 2. The cultures are incubated at 22° C. or 34° C. for promastigotes and amastigotes, respectively.\nas §1, §2, §3\nConsidering that the amastigote forms are those that multiply inside a vertebrate host and, consequently, are responsible for the disease, it is indispensable to evaluate the viability of these forms when incubated with HB-1.\nThis evaluation is performed as previously described and by applying the amastigote forms obtained from an axenic culture."}, "B16F10 melanoma cells": {"test_system": "B16F10 melanoma cells", "assay": "Cytotoxic and antiproliferative effects by the MTT colorimetric method on B16F10 melanoma cells", "assay_type": "cell-based, murine", "settings": "Mus musculus, B16-F10, 24 h, compound diluted in Miglyol 810; 24 hour; from the linear equation; read-out: IC50", "text": "Analysis of Cytotoxic and Antiproliferative Effects of HB-1 Compound and Miglyol 810® as Control by the MTT Colorimetric Method on B16F10 Melanoma Cells.\nThe colorimetric methodology for the respiratory route of mitochondria MTT (3-(4,5-dimethylthiazol-2-yl)2,5-diphenyl tetrazolium bromide) was used, as described by MOSMANN (1983). This method is based on the reduction of MTT to formazan by living cells. After growth and in vitro confluence of normal and tumoral cells, different concentrations of the HB-1 compound diluted in Miglyol 810® and the diluent-control (Miglyol 810®) have been added on the adhering cells, incubated for 24 hour. After the referred period, 10 μl of MTT (5 mg/mL) were added and incubated for 3 hours in stove with 5% CO2 at 37° C. After this period, the content of the culture plates were centrifuged for 2 minutes at 1800 rpm, at 4° C., the supernatant was removed and 100 μL of dimethyl sulfoxide (DMSO) were added to dissolve formazan crystals previously constituted and precipitated. The absorbances were obtained by an ELISA reader at 540 nm (TiterTek Multiskan) wavelength, with the results obtained shown in FIG. 12.\nIC50 Evaluation for B16F10 Melanoma Cells, Obtained from the Linear Equation."}}}
{"smiles": "COc1cc(C=CC(=O)C=Cc2ccc(O)c(OC)c2)ccc1O", "note": "[HB-1, 1,5-Bis-(4-hydroxy-3-methoxy-phenyl)-penta-1,4-dien-3-one]", "values": [{"measurement": "O.D. (optical density at 595/690 nm wavelength)", "setting": "[1]; HB-1 5 μg/mL, 24 hours", "value": 0.299}, {"measurement": "O.D. (optical density at 595/690 nm wavelength)", "setting": "[1]; HB-1 5 μg/mL, 48 hours", "value": 0.682}, {"measurement": "O.D. (optical density at 595/690 nm wavelength)", "setting": "[1]; HB-1 5 μg/mL, 72 hours", "value": 0.785}, {"measurement": "O.D. (optical density at 595/690 nm wavelength)", "setting": "[1]; HB-1 10 μg/mL, 24 hours", "value": 0.083}, {"measurement": "O.D. (optical density at 595/690 nm wavelength)", "setting": "[1]; HB-1 10 μg/mL, 48 hours", "value": 0.059}, {"measurement": "O.D. (optical density at 595/690 nm wavelength)", "setting": "[1]; HB-1 10 μg/mL, 72 hours", "value": 0.017}, {"measurement": "O.D. (optical density at 595/690 nm wavelength)", "setting": "[1]; HB-1 10 μg/mL, 96 hours", "value": 0.016}, {"measurement": "O.D. (optical density at 595/690 nm wavelength)", "setting": "[1]; HB-1 20 μg/mL, 24 hours", "value": 0.025}, {"measurement": "O.D. (optical density at 595/690 nm wavelength)", "setting": "[1]; HB-1 20 μg/mL, 48 hours", "value": 0.012}, {"measurement": "O.D. (optical density at 595/690 nm wavelength)", "setting": "[1]; HB-1 20 μg/mL, 72 hours", "value": 0.016}, {"measurement": "O.D. (optical density at 595/690 nm wavelength)", "setting": "[1]; HB-1 20 μg/mL, 96 hours", "value": 0.013}, {"measurement": "effect in words", "setting": "[1]; HB-1 from 10 μg/mL", "value": "leishmanicide effect"}, {"measurement": "inhibition of cellular activity of amastigotes", "setting": "[2]; 10 μg/mL and 20 μg/mL, first 24 hours", "value": 100, "unit": "%"}, {"measurement": "O.D. (optical density)", "setting": "[2]; HB-1 5 μg/mL, 24 hours", "value": 0.16}, {"measurement": "O.D. (optical density)", "setting": "[2]; HB-1 5 μg/mL, 48 hours", "value": 0.012}, {"measurement": "O.D. (optical density)", "setting": "[2]; HB-1 5 μg/mL, 72 hours", "value": 0.012}, {"measurement": "O.D. (optical density)", "setting": "[2]; HB-1 10 μg/mL, 24 hours", "value": 0.010}, {"measurement": "O.D. (optical density)", "setting": "[2]; HB-1 10 μg/mL, 48 hours", "value": 0.014}, {"measurement": "O.D. (optical density)", "setting": "[2]; HB-1 10 μg/mL, 72 hours", "value": 0.014}, {"measurement": "O.D. (optical density)", "setting": "[2]; HB-1 20 μg/mL, 24 hours", "value": 0.009}, {"measurement": "O.D. (optical density)", "setting": "[2]; HB-1 20 μg/mL, 48 hours", "value": 0.012}, {"measurement": "O.D. (optical density)", "setting": "[2]; HB-1 20 μg/mL, 72 hours", "value": 0.016}, {"measurement": "parasites nonviable", "setting": "[2]; all assayed concentrations, first 48 hours", "value": 100, "unit": "%"}, {"measurement": "IC50", "setting": "B16F10 melanoma cells", "value": 7, "unit": "µg/mL"}]}
